Measured values from paper PMC12040169 (PLOS Biology, 2025).

Assay: in vitro
Settings: human, hela cells

SMILES | viability at 28.5 h, 10 µM (% viability) | viability at 28.5 h, 10 µM
CC(C)(C)Nc1c(C2CCCN(C(=O)C3CC3)C2)nc2ccccn12 (centres unmarked) [CBK284759] | 105% | –
Cc1cc(C)nc(NC2=NCCN2C(=S)Nc2ccccc2)n1 [CBK266481] | 95.7% | –
Cc1nc(CN2CCCC(NCc3ccc4ccccc4c3)C2)no1 (centres unmarked) [CBK305160] | 96.5% | –
NC(=O)Nc1ccc(C(=O)N2CCN(c3ccccc3)CC2)cc1 [CBK306392] | 101% | –
Cc1ccccc1NC(=O)c1cnn2cccnc12 [CBK288217] | 90.3% | –
O=C(O)c1cccc(-c2nc(-c3ccc(S(=O)(=O)N4CCOCC4)cc3)cs2)c1 [CBK297730] | 85.8% | –
Cc1cc(C(=O)N(C)CC2(C)COC2)nc2ccccc12 [CBK281956] | 90.2% | –
Cn1ccnc1C1(O)CC2CCC(C1)N2C(=O)C1CCCC1 (centres unmarked) [CBK284052] | 86.4% | –
CC(C)(C)c1ccc(-c2cnc3ncccc3c2O)cc1 [CBK089628] | 84.3% | –
Cc1cc(S)c2cc(Br)ccc2n1 [CBK288445] | 80.5% | –
COc1ccc(CC(=O)N2CCCC(c3nccnc3-c3cccc(C)c3)C2)cc1 (centres unmarked) [CBK286137] | 94.1% | –
Cc1cc(C)nc(NC(=O)COc2ccc([N+](=O)[O-])cc2)n1 [CBK265004] | 101% | –
C/C(=N\NC(=O)CCC(=O)Nc1ccccc1C)c1ccc(O)cc1O [CBK261946] | 94.2% | –
Nc1nc(CSc2nnc(-c3ccco3)n2-c2ccccc2)cs1 [CBK269693] | 97.9% | –
O=C(NCc1ccc(Cl)c(Cl)c1)Nc1cccc(C(=O)O)c1 [CBK155461G] | 109% | –
CC(C)[C@@H](CO)Nc1nc(-c2ccc(S(C)(=O)=O)cc2)cnc1N [CBK063750] | 91.2% | –
CC(=O)N1C[C@@H]2CCCCN(CCc3ccc(F)cc3)[C@@H]2C1 [CBK285495] | 112% | –
O=C(CN1CCOCC1)N/N=C/c1cc2ccccc2nc1Cl [CBK262732] | 101% | –
CNc1nc(C2CCN(C(=O)c3ccc(N4CCC(C)CC4)cc3)C2)nc2c1CCN(C)C2 (centres unmarked) [CBK285835] | 106% | –
O=C(c1ccc2ccccc2n1)N1CCC(F)CC1 [CBK200276] | 102% | –
CCCc1ccc(S(=O)(=O)Nc2nc(C)c(C(=O)O)s2)cc1 [CBK045555] | 88.3% | –
O=C(Cc1nnn[nH]1)N1CCC(Cn2cncn2)(C2CCCCC2)CC1 [CBK136796] | 92.2% | –
COc1ccc(-c2nnc([C@H]3CCN(Cc4ccccn4)C3)o2)cc1 [CBK289401] | 93.4% | –

SMILES | viability at 28.5 h, 10 µM (% viability) | viability at 28.5 h, 10 µM
CC(C)Cn1cnc2c(c1=N)C(c1ccccc1)c1ccc(O)cc1O2 (centres unmarked) [CBK287864] | 101% | –
CCOc1cc(NC2CCN(C(=O)C(C)(C)C3CCCC3)CC2)ncn1 [CBK304430] | 91.2% | –
NS(=O)(=O)c1ccc(NC(=O)CCCN2C(=O)/C(=C/c3ccc(Cl)cc3)SC2=S)cc1 [CBK261302] | 87.9% | –
CCCc1nn(CC(=O)NC(C)(C)C)c(=O)c2cc3ccsc3n12 [CBK284148] | 83.7% | –
CCc1nc2ccc(C(=O)Nc3ccc(C(N)=O)cc3)cn2c1N(C)CCC(C)C [CBK145476] | 90.7% | –
CC(C)(C)OC(=O)N1CCC(CNS(=O)(=O)c2cccs2)CC1 [CBK086019] | 100% | –
O=C(COc1ccc2ccccc2c1Br)NCc1ccccn1 [CBK267361] | 84.1% | –
CN(Cc1ccc(-c2ccc(S(C)(=O)=O)cc2)nc1)C1CCN(C(=O)Oc2ccc(F)cc2)CC1 [CBK166097] | – | 91.5%
OCCN(Cc1cccnc1)CC1(c2ccc(Cl)cc2)CC1 [CBK282943] | 101% | –
CC(=O)Nc1cccc(-c2nccnc2NCC2CC2)c1 [CBK037962] | 90.4% | –
Cc1ccc2c(c1)cc(C)c1nn(CC(=O)NC3CC3)c(=O)n12 [CBK283873] | 99.2% | –
Cc1ccc(C(NC(=O)C2CCN(Cc3ccc(Cl)cc3)CC2)c2ccccn2)cc1 (centres unmarked) [CBK148007] | 103% | –
O=S(=O)(Nc1nnc(C(F)(F)F)s1)c1ccc(-c2ccccn2)s1 [CBK062016] | 91.9% | –
Cc1csc2c(C3CCN(C(=O)c4cnn(C)c4)CC3)nc(C)n12 [CBK285250] | 89.7% | –
CC1CCCN(Cc2ccccc2[N+](=O)[O-])C1 (centres unmarked) [CBK261862] | 102% | –
N#Cc1ccc(CN2CCCCC2c2[nH]ncc2C(N)=O)c(Cl)c1 (centres unmarked) [CBK304261] | 91.4% | –
CCOc1ccc(CN2CCN(C(=O)c3ccc(-c4ccccc4)cc3)CC2)cc1 [CBK263399] | 99.9% | –
C=Cn1cc(CN2CCCC(O)(c3ccc(F)cc3)CC2)c(C)n1 (centres unmarked) [CBK285398] | 106% | –
Cc1cc(S(=O)(=O)Nc2ccccc2-c2nnnn2C(C)C)c(C)o1 [CBK306259] | 111% | –
O=C(Cc1ccncc1)NC1Cc2ccccc2C1 [CBK200351] | 94.1% | –
CC(C)Nc1nc2ccccc2nc1OCc1ccc(C2CC2C(=O)N(C)C)cc1 (centres unmarked) [CBK166091] | 92.5% | –
Cc1cc(C2CCCN2C(=O)c2cnn3c(C)cc(C)nc23)on1 (centres unmarked) [CBK305634] | 109% | –
CC(=O)Nc1ccc(Nc2nc(-c3ccc(O)cc3)cn3ccnc23)cc1 [CBK037992] | 94.8% | –

SMILES | viability at 28.5 h, 10 µM (% viability) | viability at 28.5 h, 10 µM
Cc1ccc(S(N)(=O)=O)cc1NC(=O)Cc1ccccc1 [CBK024413] | 86.7% | –
Cc1ccc(C2C(C(=O)c3ccccc3)=C(O)C(=O)N2CCC(=O)O)cc1 (centres unmarked) [CBK286642] | 81.1% | –
O=C1N=C(NC2CCCCCC2)SC1CC(=O)N(Cc1ccccc1)c1ccccc1 (centres unmarked) [CBK067394] | 85.2% | –
Cc1n[nH]c(C)c1CCCCCOc1ccccc1 [CBK027211C] | 84.3% | –
CS(=O)(=O)N1CC2(CCN(CC(N)=O)CC2)c2ccccc21 [CBK126678] | 81.5% | –
Cc1cc(NC(=O)CS(=O)(=O)Cc2cccc(C(F)(F)F)c2)no1 [CBK304520] | 99.3% | –
O=C(CSc1nnc(COc2cccc3cccnc23)n1-c1ccccc1)N1CCCC1 [CBK269614] | 79.1% | –
O=C(NCC(c1ccco1)N1CCCC1)N1CCc2ccccc2C1 (centres unmarked) [CBK304392] | 98.8% | –
O=C(Nc1cc(Cl)ccc1Cl)C1CN(S(=O)(=O)c2ccccc2)CCN1S(=O)(=O)c1ccccc1 (centres unmarked) [CBK267004] | 88.7% | –
CC(C)NC(=O)[C@H]1O[C@H](CCN2CCN(c3ccccn3)CC2)CC[C@@H]1O [CBK288722] | 90.7% | –
CC(=O)N1CCN(C(C(=O)O)c2cn(Cc3ccccc3)c3ccc(C(=O)O)cc23)CC1 (centres unmarked) [CBK286648] | 79.6% | –
Cc1cc(Cl)ccc1OCC(=O)Nc1ccc(O)cc1C(=O)O [CBK131706] | 86% | –
CC(=O)NCCC(=O)Nc1cc(C)ccc1C [CBK306115] | 96.6% | –
Cn1c(=O)oc2cc(S(=O)(=O)N3CCN(C4CCCCC4)CC3)ccc21 [CBK268865] | 107% | –
COCCN1CCn2c(nc3cc(NC(=O)c4ccco4)ccc32)C1 [CBK267990] | 88.2% | –
CC(Oc1ccccc1)C(=O)NCCN1CCOCC1 (centres unmarked) [CBK263812] | 94.1% | –
Cc1nonc1NC(=O)CSc1nc2ccccc2[nH]1 [CBK269273] | 101% | –
O=C(NCC(O)c1ccccc1)Nc1ccccc1 (centres unmarked) [CBK057227] | 95.2% | –
Cc1ccc(C(C)C)c(OCC(=O)NS(=O)(=O)c2ccc(Br)cc2)c1 [CBK268719] | 101% | –
COc1ccc(C)cc1NC(=O)CCN1CCN(C)CC1 [CBK264216] | 102% | –
O=C(CSCc1ccc(C(=O)O)cc1)Nc1ccc2ccccc2c1 [CBK299833] | 76.1% | –
O=C(CN1CCCC1=O)NC(Cc1cccs1)c1nccs1 (centres unmarked) [CBK282177] | 104% | –
O=C(Nc1ccc(Oc2ccccc2)cc1)c1cc([N+](=O)[O-])cc2cn[nH]c12 [CBK293985] | 82.5% | –

SMILES | viability at 28.5 h, 10 µM (% viability) | viability at 28.5 h, 10 µM
CC(=O)Oc1ccc(NC(=O)CC2Nc3cc(C)c(C)cc3NC2=O)cc1 (centres unmarked) [CBK263088] | 89.5% | –
CC(=O)OC(COc1ccc(F)cc1)Cn1cnc2ccccc21 (centres unmarked) [CBK266162] | 104% | –
COC[C@@H]1CCCN1S(=O)(=O)c1ccc(Cl)c(Cl)c1 [CBK044313] | 91.3% | –
COc1ccc(-c2cnc(N)c(NC3CCOCC3)n2)c(OC)c1OC [CBK063844] | 113% | –
Cc1nc2c(OCC3CCCCC3)cccn2c1N(C)CC1CC1 [CBK147279] | 97.2% | –
CN1[C@@H](CCC(=O)NCc2ccc(F)cc2)CNC(=O)[C@@H]2[C@H]1CCN2C1CCOCC1 [CBK289023] | 106% | –
CC(C)n1nccc1NC(=O)CCn1c(C(F)F)cc2cccnc21 [CBK284690] | 99.3% | –
Cc1ccnc(SCCn2c(N(C)Cc3ccccc3)nc3c2c(=O)n(C)c(=O)n3C)n1 [CBK269394] | 98.9% | –
Cc1ccc(N2C(=O)c3ccc(C(=O)c4ccc(C(=O)O)cc4)cc3C2=O)cc1 [CBK287164] | 93.5% | –
Cc1cccc(N2CCN(CC(=O)Nc3cc(Cl)ccc3C#N)CC2)c1 [CBK306055] | 109% | –
CC(=O)NC[C@H]1CN(c2ccc(C3=CC[S+]([O-])CC3)c(F)c2)C(=O)O1 (some centres unmarked) [CBK017555] | 92.5% | –
Cc1cccc(C)c1N1CCN(CCn2c(=S)[nH]c3ccccc3c2=O)CC1 [CBK267998] | 89.9% | –
CCN(CC)C(=O)Cn1nc(C)n2c(cc3ccsc32)c1=O [CBK284104] | 97.3% | –
Cc1cc(C(=O)N2CCN(Cc3ccc(F)cc3Cl)CC2)no1 [CBK268126] | 100% | –
COc1cccc(CC(=O)Nc2ccc3c(C)cc(C)nc3n2)c1 [CBK287992] | 74.1% | –
Cc1ccc(Cc2cnc(NC(=O)NCCN3CCOCC3)s2)cc1F [CBK305449] | 93.6% | –
CCOC(=O)c1cnc(SC)nc1NCCc1c[nH]c2cc(OC)ccc12 [CBK092317] | 87.6% | –
Cc1ccc(S(=O)(=O)Nc2sccc2C(=O)O)cc1 [CBK042244] | 98.6% | –
O=S(=O)(c1ccc(F)cc1)N1CCCC1c1cccc(Cc2cccc(F)c2)n1 (centres unmarked) [CBK286209] | 93.9% | –
O=C1CN(C(=O)NCC2CCCCC2)CCN1 [CBK155854] | 85.9% | –
